Measured values as given in patent US8980542B2, “Arginine-containing compositions and methods for treating red blood cells” (Viacell, LLC, priority 2010, dated 2015).
Blank lines part the entries; values can stand above or below the molecule they belong to.

Experiments:
[1] = test system: stored RBCs; test: 2,3-DPG level of stored RBCs after incubation with storage and/or rejuvenating composition (Roche 2,3-DPG kit); type: cell-based; conditions: 60 minutes at 37° C.
Protocol: A storage and/or rejuvenating composition that includes D-ribose, inosine, sodium pyruvate, and inorganic phosphate, all at a 300 mM concentration as a slurry was prepared. When used to store and/or rejuvenate RBCs, the slurry is diluted 30-fold to a final concentration of 10 mM to form a solution. […] In a study, RBCs were collected and stored for an average of 21 days at 4° C. according to standard blood banking practice. Various RBC storage and/or rejuvenating compositions were added to the 21-day old stored RBCs and held at 37° C. for one to four hours before being tested for 2,3-DPG concentrations. […] A normal 2,3-DPG concentration of RBC immediately upon harvest is 4.0 μmol/ml. […] An increase to 1.0 μmol/ml is considered a significant improvement.
Experimental protocols were designed to find methods to increase the solubility of inosine. […] A storage and/or rejuvenating composition including 300 mM each of inosine, L-arginine, sodium pyruvate, D-ribose, and inorganic phosphate was diluted 30-fold into 21-day old stored RBCs. One set of stored blood samples was incubated for 60 minutes at room temperature and another was incubated for 60 minutes at 37° C.

[2] = Solubility of nucleoside in the composition; type: physicochemical; conditions: equimolecular solution with L-arginine, room temperature

Compound: Nc1nc2c(ncn2[C@@H]2O[C@H](CO)[C@@H](O)[C@H]2O)c(=O)[nH]1 [Guanosine]
Rejuvenation ([1]; guanosine with 10 mM each inorganic phosphate and D-ribose, no sodium pyruvate): observed

concentration at which inosine remained in solution [2]: above 50 mM
Compound: OC[C@H]1O[C@@H](n2cnc3c(O)ncnc32)[C@H](O)[C@@H]1O [inosine]

Compound: O=C[C@H](O)[C@H](O)[C@H](O)COP(=O)(O)O [ribose-5-phosphate]
Rejuvenation ([1]; inosine replaced by varying concentrations of the substance in composition with 10 mM each D-ribose, sodium pyruvate, inorganic phosphate): not observed
